Results reported in patent publication US20080280879A1, “SUBSTITUTED HETEROCYCLIC DERIVATIVES AND THEIR PHARMACEUTICAL USE AND COMPOSITIONS” (priority 2007, published 2008).
≈ marks a conversion by molar mass, not a printed value.

Key:
Type in all cases: cell-based, Staphylococcus aureus
Staph aureus 2812 = assay: MIC, microtiter broth dilution (CLSI M7-A7), Assay 1, Table 12 column E, no serum; conditions: for MIC: Staphylococcus aureus, 2812, Staph aureus 2812, Assay 1, no serum; for MIC, column E: Staph aureus 2812, Assay 1, no serum
Outline: (§1)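 MIC read as lowest drug level giving no macroscopically visible growth, μg/ml. Method: CLSI M7-A7 microtiter broth dilution, M100-S16 interpretation. Serum arm: inoculum in Mueller-Hinton Broth + 50% pooled inactivated human serum. Multiple runs → geometric mean.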

Staph aureus 1095 MRSA = assay: MIC, microtiter broth dilution (CLSI M7-A7), Assay 1, Table 12 column A, no serum; conditions: Assay 1, no serum; for MIC: Staphylococcus aureus, MRSA
Outline: as §1

Staph aureus 1146 [1] = assay: MIC in Mueller-Hinton Broth with 50% pooled inactivated human serum, Assay 1, Table 12; conditions: for MIC: Staphylococcus aureus, 1146, Staph aureus 1146, Assay 1, 50% human serum, read-out: MIC, column C; for MIC, column C: Staph aureus 1146, Assay 1, 50% human serum
Outline: as §1

Staph aureus 2811 = assay: MIC, microtiter broth dilution (CLSI M7-A7), Assay 1, Table 12 column D, no serum; conditions: for MIC: Staphylococcus aureus, 2811, Staph aureus 2811, Assay 1, no serum; for MIC, column D: Staph aureus 2811, Assay 1, no serum
Outline: as §1

Staph aureus 1146 [2] = assay: MIC, microtiter broth dilution (CLSI M7-A7), Assay 1, Table 12 column B, no serum; conditions: for MIC: Staphylococcus aureus, 1146, Staph aureus 1146, Assay 1, no serum; for MIC, column B: Staph aureus 1146, Assay 1, no serum
Outline: as §1

Row | Structure (SMILES) | MIC (Staph aureus 2812) [µg/mL] | MIC (Staph aureus 1095 MRSA) [µg/mL] | MIC (Staph aureus 1146 [1]) [µg/mL] | MIC (Staph aureus 2811) [µg/mL] | MIC (Staph aureus 1146 [2]) [µg/mL] | MIC, column A (Staph aureus 1095 MRSA) | MIC, column E (Staph aureus 2812) | MIC, column C (Staph aureus 1146 [1]) [µg/mL] | MIC, column D (Staph aureus 2811) | MIC, column B (Staph aureus 1146 [2])
1 | COc1ccc2nccc(C(O)CC[C@@H]3CCN(C4CN(C5CCCC5)C4)C[C@@H]3C(=O)O)c2c1 (stereo partly drawn) [Example 132, (3R,4R)-1-(1-cyclopentylazetidin-3-yl)-4-[3-hydroxy-3-(6-methoxyquinolin-4-yl)propyl]piperidine-3-carboxylic acid] | > 64 | > 64 | > 64 | > 64 | > 64 |  |  |  |  | 
2 | COc1ccc2nccc(C(F)CC[C@@H]3CCN(C4CC(c5ccccc5)C4)C[C@@H]3C(=O)O)c2c1 (stereo partly drawn) [Example 133, (3R,4R)-4-(3-fluoro-3-(6-methoxyquinolin-4-yl)propyl)-1-(3-phenylcyclobutyl)piperidine-3-carboxylic acid] | ≤ 0.0625 |  | 2 (≈ 4.2 µM) | 0.125 (≈ 0.262 µM) | ≤ 0.0625 | 0.25 µg/mL (≈ 0.525 µM) |  |  |  | 
3 | COc1ccc2nccc(C(F)CC[C@@H]3CCN(C4CC(c5ccccc5)C4)C[C@@H]3C(=O)O)c2c1 (stereo partly drawn) [Example 134, (3R,4R)-4-(3-fluoro-3-(6-methoxyquinolin-4-yl)propyl)-1-(3-phenylcyclobutyl)piperidine-3-carboxylic acid] |  |  |  |  |  | <=.0625 μg/ml | <=.0625 μg/ml | 4 (≈ 8.39 µM) | <=.0625 μg/ml | <=.0625 μg/ml
4 | COc1ccc2nccc(C(=O)CC[C@@H]3CCN(C4CC(c5ccccc5)C4)C[C@@H]3C(=O)O)c2c1 (stereo partly drawn) [Example 135, (3R,4R)-4-[3-(6-Methoxy-quinolin-4-yl)-3-oxo-propyl]-1-(3-phenyl-cyclobutyl)-piperidine-3-carboxylic acid] | 0.25 (≈ 0.529 µM) | 0.25 (≈ 0.529 µM) | 8 (≈ 16.9 µM) | 0.125 (≈ 0.265 µM) | 0.25 (≈ 0.529 µM) |  |  |  |  | 
5 | CNC(CC[C@@H]1CCN(C2CC(c3ccccc3)C2)C[C@@H]1C(=O)O)c1ccnc2ccc(OC)cc12 (stereo partly drawn) [Example 136, (3R,4R)-4-[3-(6-Methoxy-quinolin-4-yl)-3-methylamino-propyl]-1-(3-phenyl-cyclobutyl)-piperidine-3-carboxylic acid] | 8 (≈ 16.4 µM) | 8 (≈ 16.4 µM) | 4 (≈ 8.2 µM) | 4 (≈ 8.2 µM) | 4 (≈ 8.2 µM) |  |  |  |  | 
6 | COc1ccc2nccc(C(CC[C@@H]3CCN(C4CC(c5ccccc5)C4)C[C@@H]3C(=O)O)N3CCC3)c2c1 (stereo partly drawn) [Example 137, (3R,4R)-4-[3-Azetidin-1-yl-3-(6-methoxy-quinolin-4-yl)-propyl]-1-(3-phenylcyclobutyl)piperidine-3-carboxylic acid] | 64 (≈ 125 µM) | > 64 | > 64 | 64 (≈ 125 µM) | 64 (≈ 125 µM) |  |  |  |  | 
7 | COc1ccc2nccc(C(CC[C@@H]3CCN(C4CC(c5ccccc5)C4)C[C@@H]3C(=O)O)N3CCOCC3)c2c1 (stereo partly shown) [Example 139] |  |  |  |  |  | 2 µg/mL (≈ 3.68 µM) | 2 µg/mL (≈ 3.68 µM) | 16 (≈ 29.4 µM) | 4 µg/mL (≈ 7.36 µM) | 2 µg/mL (≈ 3.68 µM)
8 | COc1ccc2nccc(C(CC[C@@H]3CCN(C4CC(c5ccccc5)C4)C[C@@H]3C(=O)O)N(C)C)c2c1 (stereo partly drawn) [Example 140, (3R,4R)-4-[3-(dimethylamino)-3-(6-methoxyquinolin-4-yl)propyl]-1-(3-phenylcyclobutyl)piperidine-3-carboxylic acid] | 16 (≈ 31.9 µM) | 16 (≈ 31.9 µM) | 64 (≈ 128 µM) | 16 (≈ 31.9 µM) | 16 (≈ 31.9 µM) |  |  |  |  | 
9 | COc1ccc2ncc(Cl)c(C(O)CCC3(C(=O)O)CCN(C4CC(c5ccccc5)C4)CC3)c2c1 (stereo not shown) [Example 141, 4-(3-(3-chloro-6-methoxyquinolin-4-yl)-3-hydroxypropyl)-1-(3-phenylcyclobutyl)piperidine-4-carboxylic acid] | 1 (≈ 1.96 µM) | 2 (≈ 3.93 µM) | 32 (≈ 62.9 µM) | 0.5 (≈ 0.982 µM) | 1 (≈ 1.96 µM) |  |  |  |  | 
10 | O=C(O)[C@H]1CN(C2CC(c3ccccc3)C2)CC[C@H]1CCC(O)c1ccnc2ccc(OC(F)F)cc12 (stereo partly shown) [Example 143] |  |  |  |  |  | 1 µg/mL (≈ 1.96 µM) | 1 µg/mL (≈ 1.96 µM) | 2 (≈ 3.92 µM) | 0.5 µg/mL (≈ 0.979 µM) | 0.5 µg/mL (≈ 0.979 µM)
11 | COc1ccc2nccc(C(O)CC[C@@H]3CCN(C4CC(c5ccccc5)C4)C[C@@H]3C(N)=O)c2c1 (stereo partly shown) [Example 144] |  |  |  |  |  | <=.0625 μg/ml | <=.0625 μg/ml | 0.25 (≈ 0.528 µM) | <=.0625 μg/ml | <=.0625 μg/ml
12 | CNC(=O)[C@H]1CN(C2CC(c3ccccc3)C2)CC[C@H]1CCC(O)c1ccnc2ccc(OC)cc12 (stereo partly drawn) [Example 145, (3R,4R)-4-[3-Hydroxy-3-(6-methoxy-quinolin-4-yl)-propyl]-1-(3-phenyl-cyclobutyl)-piperidine-3-carboxylic acid methylamide] | 1 (≈ 2.05 µM) | 0.25 (≈ 0.513 µM) | 4 (≈ 8.2 µM) | 0.5 (≈ 1.03 µM) | 1 (≈ 2.05 µM) |  |  |  |  | 
13 | COc1ccc2ncc(F)c(C(O)COC3(C(=O)O)CCN(C4CC(c5ccccc5)C4)CC3)c2c1 (stereo not shown) [Example 146, 4-(2-(3-fluoro-6-methoxyquinolin-4-yl)-2-hydroxyethoxy)-1-(3-phenylcyclobutyl)piperidine-4-carboxylic acid] | 32 (≈ 64.7 µM) | 32 (≈ 64.7 µM) | > 64 | 32 (≈ 64.7 µM) | 16 (≈ 32.4 µM) |  |  |  |  | 
14 | COc1ccc2ncc(Cl)c(CCNC3(C(=O)O)CCCN(C4CC(c5cccc(F)c5)C4)CC3)c2c1 (stereo not shown) [Example 155, 4-{[2-(3-chloro-6-methoxyquinolin-4-yl)ethyl]amino}-1-[3-(3-fluorophenyl)cyclobutyl] azepane-4-carboxylic acid] | 0.125 (≈ 0.238 µM) | 1 (≈ 1.9 µM) | 4 (≈ 7.6 µM) | 0.25 (≈ 0.475 µM) | 0.125 (≈ 0.238 µM) |  |  |  |  | 
15 | COc1ccc2ncc(Cl)c(CCNC3(C(=O)O)CCCN(CC4CC4c4cc(F)ccc4F)CC3)c2c1 (stereo not shown) [Example 156, 4-{[2-(3-chloro-6-methoxyquinolin-4-yl)ethyl]amino}-1-{[2-(2,5-difluorophenyl)cyclopropyl]methyl}azepane-4-carboxylic acid] | 0.25 (≈ 0.46 µM) | 1 (≈ 1.84 µM) | > 33 | 0.5 (≈ 0.919 µM) | 0.25 (≈ 0.46 µM) |  |  |  |  | 
16 | COc1ccc2ncc(Cl)c(CCNC3(C(=O)O)CCCN(C4CC(c5cccc(C(F)(F)F)c5)C4)CC3)c2c1 (stereo not shown) [Example 157, 4-{[2-(3-chloro-6-methoxyquinolin-4-yl)ethyl]amino}-1-{3-[3-(trifluoromethyl)phenyl]cyclobutyl}azepane-4-carboxylic acid] | 0.5 (≈ 0.868 µM) | 4 (≈ 6.94 µM) | > 33 | 1 (≈ 1.74 µM) | 1 (≈ 1.74 µM) |  |  |  |  | 
17 | COc1ccc2nccc(C(O)CC[C@@H]3CCN(C4CC(c5nc(C6CCC6)no5)C4)C[C@@H]3C(=O)O)c2c1 (stereo partly drawn) [Example 163, (3R,4R)-1-[3-(3-cyclobutyl-1,2,4-oxadiazol-5-yl)cyclobutyl]-4-[3-hydroxy-3-(6-methoxyquinolin-4-yl)propyl]piperidine-3-carboxylic acid] | > 64 | > 64 | > 64 | > 64 | 64 (≈ 123 µM) |  |  |  |  | 

Further lines, with some results ahead:

Row | MIC (Staph aureus 2812) [µg/mL] | MIC (Staph aureus 1095 MRSA) [µg/mL] | MIC (Staph aureus 1146 [1]) [µg/mL] | MIC (Staph aureus 2811) [µg/mL] | MIC (Staph aureus 1146 [2]) [µg/mL] | Structure (SMILES) | MIC, column A (Staph aureus 1095 MRSA) | MIC, column E (Staph aureus 2812) | MIC, column C (Staph aureus 1146 [1]) [µg/mL] | MIC, column D (Staph aureus 2811) | MIC, column B (Staph aureus 1146 [2])
18 | > 64 | > 64 | > 64 | > 64 | > 64 | COc1ccc2nccc(C(O)CC[C@@H]3CCN(C4CN(C5CCCCC5)C4)C[C@@H]3C(=O)O)c2c1 (stereo partly drawn) [Example 131, (3R,4R)-1-(1-cyclohexylazetidin-3-yl)-4-[3-hydroxy-3-(6-methoxyquinolin-4-yl)propyl]piperidine-3-carboxylic acid] |  |  |  |  | 
19 | 2 (≈ 4.22 µM) | 2 (≈ 4.22 µM) | 0.5 (≈ 1.06 µM) | 0.5 (≈ 1.06 µM) | 1 (≈ 2.11 µM) | COc1ccc2nccc(C(N)CC[C@@H]3CCN(C4CC(c5ccccc5)C4)C[C@@H]3C(=O)O)c2c1 (stereo partly drawn) [Example 138, (3R,4R)-4-[3-Amino-3-(6-methoxy-quinolin-4-yl)-propyl]-1-(3-phenyl-cyclobutyl)-piperidine-3-carboxylic acid] |  |  |  |  | 
20 | 16 (≈ 34.7 µM) | 32 (≈ 69.5 µM) | > 64 | 8 (≈ 17.4 µM) | 16 (≈ 34.7 µM) | O=C(O)[C@H]1CN(C2CC(c3ccccc3)C2)CC[C@H]1CCC(O)c1ccnc2ccc(O)cc12 (stereo partly drawn) [Example 142, (3R,4R)-4-[3-hydroxy-3-(6-hydroxyquinolin-4-yl)propyl]-1-(3-phenylcyclobutyl)piperidine-3-carboxylic acid] |  |  |  |  | 
21 | 0.5 (≈ 0.958 µM) | 4 (≈ 7.66 µM) | 2 (≈ 3.83 µM) | 0.5 (≈ 0.958 µM) | 1 (≈ 1.92 µM) | COc1ccc2ncc(Cl)c(CCNC3(C(=O)O)CCCN(C4CC(c5cccc(C)c5)C4)CC3)c2c1 (stereo not shown) [Example 153, 4-{[2-(3-chloro-6-methoxyquinolin-4-yl)ethyl]amino}-1-[3-(3-methylphenyl)cyclobutyl]azepane-4-carboxylic acid] |  |  |  |  | 
22 | 0.0625 (≈ 0.115 µM) | 0.25 (≈ 0.46 µM) | 4 (≈ 7.35 µM) | 0.0625 (≈ 0.115 µM) | 0.0625 (≈ 0.115 µM) | COc1ccc2ncc(Cl)c(CCNC3(C(=O)O)CCCN(C4CC(c5c(F)cccc5F)C4)CC3)c2c1 (stereo not shown) [Example 154, 4-{[2-(3-chloro-6-methoxyquinolin-4-yl)ethyl]amino}-1-[3-(2,6-difluorophenyl)cyclobutyl]azepane-4-carboxylic acid] |  |  |  |  | 
23 | 64 (≈ 129 µM) | 64 (≈ 129 µM) | > 64 | 32 (≈ 64.7 µM) | 64 (≈ 129 µM) | CCc1noc(C2CC(N3CC[C@@H](CCC(O)c4ccnc5ccc(OC)cc45)[C@@H](C(=O)O)C3)C2)n1 (stereo partly drawn) [Example 162, (3R,4R)-1-[3-(3-ethyl-1,2,4-oxadiazol-5-yl)cyclobutyl]-4-[3-hydroxy-3-(6-methoxyquinolin-4-yl)propyl]piperidine-3-carboxylic acid] |  |  |  |  | 
